Reference: patent publication US20260199193A1, “POWDERY SOLID COSMETIC” (Shiseido Company, Ltd., priority 2022, published 2026)
Peptide text beside a SMILES is read from it.

Assay: log P value (octanol/water partition coefficient)
Type: physicochemical
Conditions: octanol / aqueous buffer solution at pH 7
Description: The log P value of the nonionic water-soluble agent may be 1.8 or less, 1.5 or less, 1.3 or less, or 1.0 or less, and may be −4.0 or more, −3.8 or more, −3.5 or more, −3.3 or more, −3.0 or more, −2.7 or more, or −2.5 or more. The “log P value” herein is a parameter that represents the tendencies of partitioning of a substance into water and octanol, and is a value commonly used as an index to determine the degree of hydrophilicity or hydrophobicity of a substance. The smaller the log P value, the more hydrophilic the substance is meant to be. The larger the log P value, the more hydrophobic the substance is meant to be. The log P value may also be referred to as “octanol/water partition coefficient” according to the method of its calculation. The octanol/water partition coefficient can be determined by adding an agent into a flask containing octanol and an aqueous buffer solution at pH 7, shaking the flask, and then performing calculation according to the following Equation A based on the agent concentration in each phase: […]

logP | SMILES
-1.4 | O=C1NCCN1CCO [1-(2-hydroxyethyl)-2-imidazolidinone]
-1.5 | CCOC1=C(O)[C@@H]([C@@H](O)CO)OC1=O [2-O-ethyl ascorbic acid]
-1.8 | OCC(O)CO [Glycerin]
1.6 | O=C1O[C@H]([C@@H](O)CO)C(O)=C1O [L-ascorbic acid]
-1.1 | Nc1ncnc2c1ncn2[C@@H]1O[C@H](CO)[C@@H](O)[C@H]1O [adenosine]
-0.7 | OC[C@H]1O[C@@H](Oc2ccc(O)cc2)[C@H](O)[C@@H](O)[C@@H]1O [arbutin]
-2.3 | NCC(=O)NCC(=O)O [glycylglycine] (H-Gly-Gly-OH)
-0.4 | NC(=O)c1cccnc1 [niacinamide]
-0.8 | Cc1ncc(CO)c(CO)c1O [pyridoxine]
1.4 | NCCS(=O)(=O)O [taurine]
-2 | NC[C@H]1CC[C@H](C(=O)O)CC1 [tranexamic acid, reference compound]
-1.7 | OC[C@H]1O[C@H](O[C@H]2O[C@H](CO)[C@@H](O)[C@H](O)[C@H]2O)[C@H](O)[C@@H](O)[C@@H]1O [trehalose]
0.1 | C[N+](C)(C)CC(=O)[O-] [trimethylglycine]
-2.5 | OC[C@@H](O)[C@H](O)[C@@H](O)CO [xylitol]

SMILES | logP
CC(O)CCO (stereo not drawn) [1,3-butylene glycol] | -0.4
